What was measured:
[1] = system: PC-3; test: Antiproliferative activity against human PC3 cells incubated for 48 hrs and measured after 4 hrs by MTT assay; type: functional, cell-based
[2] = Cytotoxicity against human IOSE-144 cells incubated for 48 hrs and measured after 4 hrs by MTT assay; type: cell-based
[3] = system: MGC-803; test: Antiproliferative activity against human MGC803 cells incubated for 48 hrs and measured after 4 hrs by MTT assay; type: functional, cell-based
[4] = system: MCF7; test: Antiproliferative activity against human MCF7 cells incubated for 48 hrs and measured after 4 hrs by MTT assay; type: functional, cell-based
[5] = system: A549; test: Antiproliferative activity against human A549 cells incubated for 48 hrs and measured after 4 hrs by MTT assay; type: functional, cell-based
[6] = system: SGC-7901; test: Antiproliferative activity against human SGC7901 cells incubated for 48 hrs and measured after 4 hrs by MTT assay; type: functional, cell-based

Row | IC50 [1] [µM] | IC50 [3] [µM] | IC50 [4] [µM] | IC50 [5] [µM] | IC50 [6] [µM] | Structure (SMILES) | IC50 [2] [µM]
1 | 30.8 | 20.6 | 18.5 | 11.6 | 29.9 | CC(C)(O)CCC[C@@](C)(O)[C@H]1CC[C@]2(C)[C@@H]1[C@H](O)C[C@@H]1[C@@]3(C)CC[C@H](NC(=O)C4CCCNC4)C(C)(C)[C@@H]3CC[C@]12C (stereo not given in full) | > 100
2 | 23.1 | 16.8 | 21.2 | 23.5 | 18.1 | CC(C)(O)CCC[C@@](C)(O)[C@H]1CC[C@]2(C)[C@@H]1[C@H](O)C[C@@H]1[C@@]3(C)CC[C@H](NC(=O)C4CCCN(C(=O)OC(C)(C)C)C4)C(C)(C)[C@@H]3CC[C@]12C (stereo not given in full) | > 100
3 | > 100 | 56.1 | > 100 | > 100 | > 100 | CC(C)(O)CCC[C@@](C)(O)[C@H]1CC[C@]2(C)[C@@H]1[C@H](O)C[C@@H]1[C@@]3(C)C/C(=C\c4cccc(F)c4)[C@H](O)C(C)(C)[C@@H]3CC[C@]12C | > 100
4 | 36.8 | 26.2 | 15.5 | 48.4 | 29.1 | CC(C)(O)CCC[C@@](C)(O)[C@H]1CC[C@]2(C)[C@@H]1[C@H](O)C[C@@H]1[C@@]3(C)C/C(=C\c4ccc(C(F)(F)F)cc4)C(=O)C(C)(C)[C@@H]3CC[C@]12C | > 100
5 | 58.1 | 23.2 | 49.4 | 34.2 | 47.2 | CC(C)(O)CCC[C@@](C)(O)[C@H]1CC[C@]2(C)[C@@H]1[C@H](O)C[C@@H]1[C@@]3(C)C/C(=C\c4ccc([N+](=O)[O-])cc4)[C@H](O)C(C)(C)[C@@H]3CC[C@]12C | > 100
6 | 23.6 | 22.2 | 26.7 | 22.2 | 22.3 | CC(C)(O)CCC[C@@](C)(O)[C@H]1CC[C@]2(C)[C@@H]1[C@H](O)C[C@@H]1[C@@]3(C)CC[C@H](OC(=O)C4CCCN(C(=O)OC(C)(C)C)C4)C(C)(C)[C@@H]3CC[C@]12C (stereo not given in full) | > 100
7 | 30.8 | 22.2 | 22.2 | 19.7 | 28.2 | CC(C)(O)CCC[C@@](C)(O)[C@H]1CC[C@]2(C)[C@@H]1[C@H](O)C[C@@H]1[C@@]3(C)C/C(=C\c4ccc([N+](=O)[O-])cc4)C(=O)C(C)(C)[C@@H]3CC[C@]12C | > 100
8 | 14.1 | 13.6 | 12.2 | 34.7 | 20.6 | CC(C)(O)CCC[C@@](C)(O)[C@H]1CC[C@]2(C)[C@@H]1[C@H](O)C[C@@H]1[C@@]3(C)C/C(=C\c4cccc(Br)c4)C(=O)C(C)(C)[C@@H]3CC[C@]12C | > 100
9 | 49.5 | 13.3 | 14.8 | 55.6 | 31.8 | CC(C)(O)CCC[C@@](C)(O)[C@H]1CC[C@]2(C)[C@@H]1[C@H](O)C[C@@H]1[C@@]3(C)C/C(=C\c4cccc(F)c4)C(=O)C(C)(C)[C@@H]3CC[C@]12C | > 100

More lines, now with the values behind:

Row | Structure (SMILES) | IC50 [1] [µM] | IC50 [3] [µM] | IC50 [4] [µM] | IC50 [5] [µM] | IC50 [6] [µM] | IC50 [2] [µM]
10 | CC(C)(O)CCC[C@@](C)(O)[C@H]1CC[C@]2(C)[C@@H]1[C@H](O)C[C@@H]1[C@@]3(C)C/C(=C\c4cccc([N+](=O)[O-])c4)[C@H](O)C(C)(C)[C@@H]3CC[C@]12C | 75.2 | > 100 | > 100 | 44.9 | > 100 | > 100
11 | CC(C)(O)CCC[C@@](C)(O)[C@H]1CC[C@]2(C)[C@@H]1[C@H](O)C[C@@H]1[C@@]3(C)CC[C@H](NC(=O)C4CCN(C(=O)OC(C)(C)C)CC4)C(C)(C)[C@@H]3CC[C@]12C | 17.9 | 11.4 | 89.5 | 11.7 | 18.8 | > 100
12 | CC(C)(O)CCC[C@@](C)(O)[C@H]1CC[C@]2(C)[C@@H]1[C@H](O)C[C@@H]1[C@@]3(C)CC[C@H](NC(=O)C4CCNCC4)C(C)(C)[C@@H]3CC[C@]12C | 34.1 | 25.5 | 25.2 | 20.3 | 32.4 | > 100
13 | CC(C)(O)CCC[C@@](C)(O)[C@H]1CC[C@]2(C)[C@@H]1[C@H](O)C[C@@H]1[C@@]3(C)C/C(=C\c4ccc(F)cc4F)[C@H](O)C(C)(C)[C@@H]3CC[C@]12C | 24.4 | 12.6 | 13.2 | 21.4 | 30.4 | > 100
14 | CC(C)(O)CCC[C@@](C)(O)[C@H]1CC[C@]2(C)[C@@H]1[C@H](O)C[C@@H]1[C@@]3(C)C/C(=C\c4ccc(Br)cc4)C(=O)C(C)(C)[C@@H]3CC[C@]12C | 16.6 | 13.8 | 8.45 | 23.1 | 21.4 | > 100
15 | CC(C)(O)CCC[C@@](C)(O)[C@H]1CC[C@]2(C)[C@@H]1[C@H](O)C[C@@H]1[C@@]3(C)CC[C@H](N)C(C)(C)[C@@H]3CC[C@]12C | 34 | 13.8 | 13.3 | 7.68 | 53.1 | > 100
16 | CC(C)(O)CCC[C@@](C)(O)[C@H]1CC[C@]2(C)[C@@H]1[C@H](O)C[C@@H]1[C@@]3(C)CC[C@H](OC(=O)C4CCCNC4)C(C)(C)[C@@H]3CC[C@]12C (stereo not given in full) | 13.1 | 12.5 | 14 | 5.44 | 12.1 | > 100
17 | CC(C)(O)CCC[C@@](C)(O)[C@H]1CC[C@]2(C)[C@@H]1[C@H](O)C[C@@H]1[C@@]3(C)C/C(=C\c4ccc(C(F)(F)F)cc4)[C@H](O)C(C)(C)[C@@H]3CC[C@]12C | > 100 | > 100 | > 100 | 45.6 | > 100 | > 100
18 | CC(C)(O)CCC[C@@](C)(O)[C@H]1CC[C@]2(C)[C@@H]1[C@H](O)C[C@@H]1[C@@]3(C)C/C(=C\c4cccc(Br)c4)[C@H](O)C(C)(C)[C@@H]3CC[C@]12C | > 100 | 18.8 | > 100 | > 100 | > 100 | > 100
19 | CC(C)(O)CCC[C@@](C)(O)[C@H]1CC[C@]2(C)[C@@H]1[C@H](O)C[C@@H]1[C@@]3(C)CC[C@H](OC(=O)C4CCN(C(=O)OC(C)(C)C)CC4)C(C)(C)[C@@H]3CC[C@]12C | 25.8 | 22.2 | 11 | 10.8 | 18.2 | > 100
20 | CC(C)(O)CCC[C@@](C)(O)[C@H]1CC[C@]2(C)[C@@H]1[C@H](O)C[C@@H]1[C@@]3(C)C/C(=C\c4cccc([N+](=O)[O-])c4)C(=O)C(C)(C)[C@@H]3CC[C@]12C | 14.1 | 11.3 | 12.7 | 16.7 | 17.6 | > 100

Source: ChEMBL document CHEMBL4376871, “Synthesis and anti-cancer activity studies of dammarane-type triterpenoid derivatives” (Eur J Med Chem, 2020)
